Experimental data taken from US7829548B2, “Compounds useful in the treatment of HIV” (Medivir AB, priority 2004, dated 2010).
Like-named read-outs stand apart in the source and are kept apart here. Each block holds one molecule with its values, some of them ahead of it.

How the values were obtained:
[1] = test system: HIV-1 isolates from patient plasma samples; type: cell-based; settings: for FC value: isolate 4 (K65R+M184V, R211S, K219E)
Protocol: The susceptibility of 2′,3′-dideoxy-3′-C-hydroxymethyl-cytosine on HIV-1 isolates from patient plasma samples that bear typical TAM primer rescue mutant resistant genotypes is determined by the commercially available PhenoSense HIV assay (described in Petropoulos, C J et al., (2000) Antimicrob. Agents Chemother. 44:920-928 and performed by ViroLogics, Inc). The assay is performed by amplifying the protease (PR)-RT segment of the HIV pol gene from patient plasma and inserting the amplification products into a modified HIV-1 vector derived from an NL4-3 molecular clone.
Viral stocks are prepared by co-transfecting 293 cell cultures with recombinant viral DNA vector and an expression vector that produces the amphotropic murine leukemia virus envelope proteins. Pseudotyped virus particles are harvested from the transfected cell cultures and are used to infect fresh 293 cell cultures. The recombinant viral DNA contains a luciferase gene cassette within the HIV env gene region and the production of luciferase in target cells is dependent on the completion of one round of virus replication. Drug susceptibility is measured by adding serial concentrations of the compound of the invention and the reference compounds to the cells. Drugs that inhibit virus replication reduce luciferase signal in a dose-dependent manner, providing a quantitative measure of drug susceptibility.

[2] = test system: TAM primer rescue-related resistant HIV isolates; assay: Drug susceptibility assay in PBMC culture (p24 antigen); type: cell-based, HIV-1
Protocol: The antiviral performance of the compound of the invention against additional TAM primer rescue-related resistant HIV isolates was assayed in a PBMC culture. Isolates of HIV-1 were generated and expanded to high titer by co-cultivation of infected patient PBMC with PHA-stimulated donor PBMC (Virology Manual for ACTG HIV Laboratories). The cell-free supernatants were harvested, sequenced, and stored in aliquots at −70° C. for drug susceptibility assays.
In vitro drug susceptibility assays were performed using a modified ACTG/DOD consensus method (Virology Manual for ACTG HIV laboratories). PBMCs were pre-infected with viral stocks for 4 hrs at […] in a humidified atmosphere of 5% CO2 following 4 hr incubation. Infected cells were washed twice in media and pipetted into a microtiter plate with eight serial drug dilutions. Each well contained 100,000 pre-infected PBMC and all drug dilutions were made with cell culture medium. The drug dilutions were chosen to span the 50% inhibitory concentration (IC50) for each single drug. Control wells containing cells and virus were co-incubated on each plate. After a 7-day incubation at […] in a […] atmosphere of 5% CO2, viral growth was determined using a p24 antigen assay on supernatants (Abbott Laboratories, Chicago, USA). The percent inhibition of viral growth compared to the control well, which contained no drug, was calculated and expressed as fold changes (reductions in compounds susceptibility) compared to the control well. The reference compound AZT was run in parallel with the compound of the invention.
A cluster of representative of primer rescue-related mutant virus was selected that harbors the essential feature of primer rescue-related TAM resistant RT mutations. Strains with mutations at position M41L, D67N, K70R, L210W, T215Y/F and K219Q/E in various combinations with or without discriminative mutant M184V were used as indicated in Table 4.

[3] = Release of parent compound from prodrugs in pooled human plasma; type: in vitro ADME; settings: 37C, spiked with 5 uM of the prodrug
Protocol: Confirmation that the prodrugs of the invention convert completely to active 2′3′-dideoxy-3′-C-hydromethylcytosine parent compound can be assessed by monitoring the appearance of the parent compound in pooled human plasma, 37C, spiked with 5 uM of the prodrug: […]

HIV = assay: Antiretroviral ED50 in human H9 cells; type: cell-based; settings: Human immunodeficiency virus 1
HIV-1 RT [4] = biological target: T1, HIV-1 RT (Human immunodeficiency virus type 1 group M subtype B, UniProt P04585); assay: Residual free 3′-OH primer terminus after pre-incubation, second round of RT-catalysed DNA polymerization; type: biochemical; settings: pre-incubation 10 and 30 minutes; ddCTP compared to the triphosphate of the compound of the invention
Protocol: The presence of a 3′-hydroxymethyl group in the compound of the invention should, in principle, support incorporation and elongation into the viral nucleic acid catalyzed by HIV-1 RT. A rate-limiting amount of primer-template (16S and 23S ribosomal RNA annealed with an oligo-DNA primer with the sequence of 5′-[…]-3′ (SEQ ID NO:1), custom synthesized by INNOVAGEN) was used. This was pre-incubated with 100 μM (55 times the IC50) 2′-3′-dideoxy-3′-C-hydroxymethylcytidine-triphosphate, 6.0 μM ddC-triphosphate (54 times the IC50 ddCTP), 20 μM deoxycytosine-triphosphate (20 times the Km dCTP) or the control (H2O). At the time points indicated (0, 10, 30, 60, and 120 min), the DNA polymerization process was stopped by inactivation of the RT at 70° C. for 2 min during the first round of DNA polymerization (FIG. 9).
The residual amount of primer-template directly reflects the availability of free 3′-OH primer terminus present after the first round of reaction. […] The availability of free 3′-OH at the primer terminus in the residual amount of primer-template that supported further DNA polymerization was measured and expressed as a function of pre-incubation time (FIG. 10).

HIV-1 RT [5] = biological target: T1, HIV-1 RT; assay: DNA chain termination assay (M13mp18 template, gel autoradiography); type: biochemical
Protocol: Two deoxycytosine analogues, the conventional NRTI ddC lacking a 3′-hydroxyl group function and the compound of the invention, were subjected to a DNA chain termination assay in which DNA prolongation was conducted with M13mp18 single strand DNA template pre-annealed to an oligo-DNA primer (the forward primer sequence of 5′-[…]-3′ (SEQ ID NO:2) was purchased from Amersham UK. M13mp18 single strand […] was annealed to this oligo-DNA primer giving a final concentration of 1 mg/ml in a buffer containing 10 mM Tris-HCl, pH 7.9 and 100 mM NaCl, and was stored in aliquots at −20° C. DNA polymerization was conducted using this annealed template/primer, HIV-1 RT and natural dNTPs in a reaction incubated at 37° C. for 25 min. The reaction was stopped by the addition of Stop solution containing 95% Formamide, 20 mM EDTA, 0.05% Bromophenol Blue and 0.05% Xylene Cyanol FF (purchased from USB, United States Biochemical via Amersham UK). After denaturing the DNA products, the elongated DNA fragment was electrophoresed on an 8.0% polyacrylamide gel and visualized using autoradiography.
The assay included a negative control (the native dNTP), dual positive ddCTP controls (ddCTP, 8 uM from Sigma Chemical, St. Louis, Miss., USA and ddCTP obtained from a USB sequence kit United States Biochemical via Amersham UK). Various molecule ratios of the triphosphate of the compound of the invention and the natural dNTP were used. After the reaction was conducted as described above, the denatured DNA fragments from each individual reaction was loaded onto an 8.0% polyacrylamide gel in the following order: • 1—Negative control • 2—1st Positive control 8 μM ddCTP (purchased from Sigma) • 3—20 μM inventionTP in 200 μM dNTP • 4—30 μM inventionTP in 300 μM dNTP • 5—40 μM invention TP in 400 μM dNTP • 6—50 μM invention TP in 500 μM dNTP • 7—20 μM invention TP in 80 μM dNTP • 8—40 μM invention TP in 80 μM dNTP • 9—Empty space (no loading) • 10—2nd positive control ddCTP (from USB sequence kit)

[6] = patient isolates 20 and 21, isolate not specified, compared to wildtype
[7] = primer rescue mutant isolates of Table 4

SMILES: Nc1nc(NC2CC2)c2ncn([C@H]3C=C[C@@H](CO)C3)c2n1 [ABC, abacavir]
FC value [1]: > 9.0 | fold reduction in susceptibility [1, 6]: lost potency

SMILES: Cc1cn([C@H]2C[C@H](N=[N+]=[N-])[C@@H](CO)O2)c(=O)[nH]c1=O [AZT, zidovudine]
FC value ([2]; isolate 7086 (T215V)): 3.0 | FC value [2, 7]: a couple of hundred folds | FC value [1]: 1.11

SMILES: Nc1ccn([C@@H]2CS[C@H](CO)O2)c(=O)n1 [Compound 3TC, lamivudine]
FC value [1]: > 200

Concentration of parent uM 5 min [3]: 0.4 µM | Concentration of parent uM 20 min [3]: 1.0 µM | Concentration of parent uM O min [3]: 0 µM
SMILES: CC(C)[C@H](N)C(=O)OCC1CC(n2ccc(N)nc2=O)OC1CO (stereo partly drawn) [Compound 5, 2′-3′-dideoxy-3-C-(L-valyl-oxymethyl)cytosine]

Concentration of parent uM 5 min [3]: 0.2 µM | Concentration of parent uM 20 min [3]: 0.3 µM | Concentration of parent uM O min [3]: 0.1 µM
SMILES: CC(C)[C@H](N)C(=O)OCC1CC(n2ccc(N)nc2=O)OC1COC(=O)[C@@H](N)C(C)C (stereo partly drawn) [Compound 8, 5′-O-L-valyl-2′,3′-dideoxy-3′-C-L-valyloxymethylcytosine]

Concentration of parent uM 5 min [3]: 4.5 µM | Concentration of parent uM 20 min [3]: 4.6 µM | Concentration of parent uM O min [3]: 4.6 µM
SMILES: CC(C)[C@H](N)C(=O)O[C@@H](C)C(=O)OCC1CC(n2ccc(N)nc2=O)OC1CO (stereo partly drawn) [Compound 14, 2′,3′-dideoxy-3′-C-[2-S-(L-valyloxy)-propionyl]-oxymethylcytosine]

Concentration of parent uM 5 min [3]: 4.0 µM | Concentration of parent uM 20 min [3]: 4.5 µM | Concentration of parent uM O min [3]: 4.2 µM
SMILES: CCCCC(=O)OCC1CC(n2ccc(N)nc2=O)OC1COC(=O)CCCC (centres unmarked) [Compound 22, 5′-O-pentanoyl-2′-3′-dideoxy-3-C-pentanoyl-oxymethylcytosine]

SMILES: CCCCC(=O)OC[C@H]1C[C@H](n2ccc(N)nc2=O)O[C@@H]1CO [Compound 24, 2′,3′-dideoxy-3′-C-pentanoyl-oxymethylcytosine]
Concentration of parent uM 5 min [3]: 4.2 µM | Concentration of parent uM 20 min [3]: 4.4 µM | Concentration of parent uM O min [3]: 3.9 µM

SMILES: Nc1nc(=O)n([C@@H]2CS[C@H](CO)O2)cc1F [FTC, emtricitabine]
FC value [1]: > 40 | fold reduction in susceptibility [1, 6]: lost potency

SMILES: C[C@H](Cn1cnc2c(N)ncnc21)OCP(=O)(O)O [TNF, tenofovir]
fold reduction in susceptibility [1, 6]: lost potency

SMILES: Nc1ccn([C@H]2C[C@H](CO)[C@@H](CO)O2)c(=O)n1 [compound of the invention, 2′,3′-dideoxy-3′-C-hydroxymethylcytidine]
FC value [2, 7]: ≤ 2.7 | EC50 (HIV): ~10 nM | FC value [1]: 3.88 | fold difference in susceptibility ([1]; patient isolate 19 (M184V + TAMs), compared to wild type HIV): 1.78 fold | fold reduction in susceptibility ([1]; patient isolate 20 (TAM), compared to wild-type HIV): 1.0 fold | fold reduction in susceptibility ([1]; patient isolate 21 (TAM), compared to wild-type HIV): < 1.0 fold | fold reduction in susceptibility ([1]; patient isolate 32 (T69S + VG insertion)): 2.79 fold | fold reduction in susceptibility ([1]; patient isolate 35 (T69S + VA insertion)): 4.29 fold | change in drug susceptibility ([1]; patient isolates 31, 32 and 35 (T69S + XX + TAMs), compared with six reference antivirals): smallest change in drug susceptibility

SMILES: Cc1cn([C@H]2C=C[C@@H](CO)O2)c(=O)[nH]c1=O [d4T, stavudine]
FC value [1]: 0.71 | fold reduction in susceptibility [1, 6]: lost potency

SMILES: Nc1ccn([C@H]2CC[C@@H](COP(=O)(O)OP(=O)(O)OP(=O)(O)O)O2)c(=O)n1 [ddCTP, ddC-triphosphate, reference compound]
residual 3-OH primer terminus left to support further DNA prolongation (HIV-1 RT [4]): less than half | chain termination pattern (HIV-1 RT [5]; lane 2, 1st positive control, 8 μM): led to chain termination at the anticipated 2′3′-deoxydeoxycytosine sites | chain termination pattern (HIV-1 RT [5]; lane 10, 2nd positive control (USB sequence kit)): led to chain termination at anticipated 2′3′-deoxydeoxycytosine sites

SMILES: Nc1ccn([C@H]2C[C@H](CO)[C@@H](COP(=O)(O)OP(=O)(O)OP(=O)(O)O)O2)c(=O)n1 [inventionTP, 2′-3′-dideoxy-3′-C-hydroxymethylcytidine-triphosphate]
chain termination pattern (HIV-1 RT [5]; lane 3, 20 μM TP / 200 μM dNTP): led to chain termination at the site after/behind 2′3′-deoxydeoxycytosine site | chain termination pattern (HIV-1 RT [5]; lane 4, 30 μM TP / 300 μM dNTP): led to chain termination at the site after 2′3′-deoxydeoxycytosine site | chain termination pattern (HIV-1 RT [5]; lane 5, 40 μM TP / 400 μM dNTP): lead to chain termination at the site after 2′3′-deoxydeoxycytosine site | chain termination pattern (HIV-1 RT [5]; lane 6, 50 μM TP / 500 μM dNTP): No specific pause (chain termination pattern) was found | chain termination pattern (HIV-1 RT [5]; lane 7, 20 μM TP / 80 μM dNTP): led to a more pronounced chain termination effect at the site after the 2′3′-deoxydeoxycytosine site | chain termination pattern (HIV-1 RT [5]; lane 8, 40 μM TP / 80 μM dNTP): led to a more pronounced chain termination effect at the site after the 2′3′-deoxydeoxycytosine site
